This passage reports TGI results from PubChem BioAssay (NCI).

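How tested: cells in 96-well plates exposed to compound for 48 hours at five concentrations. At the TGI there is no net growth.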

One test deals with NCI-H226 lung. As to the kind of experiment: NCI-60 cell line screen, 48 h.
The compound `CC(C)OC(=O)c1ccc(NCc2cc(O)ccc2O)cc1Cl` gave a TGI of more than 49.9 µM.

A further test concerns NCI-H23 lung. Nature of the test: NCI-60 cell line screen, 48 h.
`CCOP(=O)(OCC)/C(C#N)=C/c1ncc[nH]1` had a TGI of more than 100 µM.
In turn, `Cc1csc2c(=O)n(C3OC(CO)C(O)C3O)c(=O)[nH]c12` (stereo not drawn) had a TGI of more than 100 µM.
Still for that read-out and setting: under `Cc1csc2[n+]1C(=O)/C(=C\c1ccc([N+](=O)[O-])cc1)S2` stands 48.6 µM; under `CC(C)OC(=O)c1ccc(NCc2cc(O)ccc2O)cc1Cl`, 28.6 µM.

A further test deals with NCI-H460 lung. As to the kind of experiment: NCI-60 cell line screen, 48 h.
`CCOP(=O)(OCC)/C(C#N)=C/c1ncc[nH]1` returned a TGI of more than 100 µM.
In the case of `Cc1csc2c(=O)n(C3OC(CO)C(O)C3O)c(=O)[nH]c12` (stereo not drawn), the TGI is more than 100 µM.
On the same count and under the same terms, next, `Cc1csc2[n+]1C(=O)/C(=C\c1ccc([N+](=O)[O-])cc1)S2`: 41.9 µM.
Same read-out and setting: under `CC(C)OC(=O)c1ccc(NCc2cc(O)ccc2O)cc1Cl` stands 23.7 µM.

The subject of the next test is NCI-H522 lung. Nature of the test: NCI-60 cell line screen, 48 h.
`CCOP(=O)(OCC)/C(C#N)=C/c1ncc[nH]1` gave a TGI of more than 100 µM.
The same measure, in the same setting: under `Cc1csc2c(=O)n(C3OC(CO)C(O)C3O)c(=O)[nH]c12` (stereo not drawn) stands more than 100 µM.

The next test has as its system NCI/ADR-RES ovarian. Nature of the test: NCI-60 cell line screen, 48 h.
As to `CCOP(=O)(OCC)/C(C#N)=C/c1ncc[nH]1`, the TGI was more than 100 µM.
Take `Cc1csc2c(=O)n(C3OC(CO)C(O)C3O)c(=O)[nH]c12` (stereo not drawn): the TGI is more than 100 µM.
Still for that read-out and setting: next, `Cc1csc2[n+]1C(=O)/C(=C\c1ccc([N+](=O)[O-])cc1)S2`: 63.6 µM; `CC(C)OC(=O)c1ccc(NCc2cc(O)ccc2O)cc1Cl`: more than 100 µM.

Another test deals with OVCAR-3 ovarian. As to the kind of experiment: NCI-60 cell line screen, 48 h.
As for `CCOP(=O)(OCC)/C(C#N)=C/c1ncc[nH]1`, the TGI is more than 100 µM.
On the same count and under the same terms, under `Cc1csc2c(=O)n(C3OC(CO)C(O)C3O)c(=O)[nH]c12` (stereo not drawn) stands more than 100 µM.
Same read-out and setting: under `Cc1csc2[n+]1C(=O)/C(=C\c1ccc([N+](=O)[O-])cc1)S2` stands 33.1 µM.
Same read-out and setting: under `CC(C)OC(=O)c1ccc(NCc2cc(O)ccc2O)cc1Cl` stands more than 42.2 µM.

The next test deals with OVCAR-4 ovarian. Nature of the test: NCI-60 cell line screen, 48 h.
For the compound `CCOP(=O)(OCC)/C(C#N)=C/c1ncc[nH]1`, the TGI was more than 100 µM.
As to `Cc1csc2c(=O)n(C3OC(CO)C(O)C3O)c(=O)[nH]c12` (stereo not drawn), the TGI was more than 100 µM.
Same read-out and setting: under `Cc1csc2[n+]1C(=O)/C(=C\c1ccc([N+](=O)[O-])cc1)S2` stands more than 100 µM.
Same read-out and setting: under `CC(C)OC(=O)c1ccc(NCc2cc(O)ccc2O)cc1Cl` stands 21.9 µM.

A further test has as its system OVCAR-5 ovarian. Nature of the test: NCI-60 cell line screen, 48 h.
The compound `CCOP(=O)(OCC)/C(C#N)=C/c1ncc[nH]1` yielded a TGI of more than 100 µM.
Same read-out and setting: under `Cc1csc2c(=O)n(C3OC(CO)C(O)C3O)c(=O)[nH]c12` (stereo not drawn) stands more than 100 µM.
`Cc1csc2[n+]1C(=O)/C(=C\c1ccc([N+](=O)[O-])cc1)S2` returned a TGI of more than 100 µM.
Consider `CC(C)OC(=O)c1ccc(NCc2cc(O)ccc2O)cc1Cl`, for which the TGI was 26.6 µM.

The test system of another test is OVCAR-8 ovarian. Nature of the test: NCI-60 cell line screen, 48 h.
As to `CCOP(=O)(OCC)/C(C#N)=C/c1ncc[nH]1`, the TGI was more than 100 µM.
The same measure, in the same setting: under `Cc1csc2c(=O)n(C3OC(CO)C(O)C3O)c(=O)[nH]c12` (stereo not drawn) stands more than 100 µM.
The compound `Cc1csc2[n+]1C(=O)/C(=C\c1ccc([N+](=O)[O-])cc1)S2` registered a TGI of more than 100 µM.
The same measure, in the same setting: under `CC(C)OC(=O)c1ccc(NCc2cc(O)ccc2O)cc1Cl` stands more than 70.1 µM.

The next test relates to PC-3 prostate. Nature of the test: NCI-60 cell line screen, 48 h.
For the compound `CCOP(=O)(OCC)/C(C#N)=C/c1ncc[nH]1`, the TGI is more than 100 µM.
Still for that read-out and setting: next, `Cc1csc2c(=O)n(C3OC(CO)C(O)C3O)c(=O)[nH]c12` (stereo not drawn): more than 100 µM.
Still for that read-out and setting: next, `Cc1csc2[n+]1C(=O)/C(=C\c1ccc([N+](=O)[O-])cc1)S2`: 75.5 µM; `CC(C)OC(=O)c1ccc(NCc2cc(O)ccc2O)cc1Cl`: 12.5 µM.

The subject of another test is RPMI-8226 leukemia. As to the kind of experiment: NCI-60 cell line screen, 48 h.
The compound `CCOP(=O)(OCC)/C(C#N)=C/c1ncc[nH]1` had a TGI of more than 100 µM.
Still for that read-out and setting: next, `Cc1csc2c(=O)n(C3OC(CO)C(O)C3O)c(=O)[nH]c12` (stereo not drawn): more than 100 µM; `Cc1csc2[n+]1C(=O)/C(=C\c1ccc([N+](=O)[O-])cc1)S2`: more than 100 µM.

A further test has as its system RXF 393 renal. Nature of the test: NCI-60 cell line screen, 48 h.
Regarding `CCOP(=O)(OCC)/C(C#N)=C/c1ncc[nH]1`, the TGI was more than 100 µM.
Compound `Cc1csc2c(=O)n(C3OC(CO)C(O)C3O)c(=O)[nH]c12` (stereo not drawn) showed a TGI of more than 100 µM.
The same measure, in the same setting: next, `Cc1csc2[n+]1C(=O)/C(=C\c1ccc([N+](=O)[O-])cc1)S2`: 82.6 µM; `CC(C)OC(=O)c1ccc(NCc2cc(O)ccc2O)cc1Cl`: 13.1 µM.

For another test, the system named is SF-268 CNS. As to the kind of experiment: NCI-60 cell line screen, 48 h.
Take `CCOP(=O)(OCC)/C(C#N)=C/c1ncc[nH]1`: the TGI was more than 100 µM.
Same read-out and setting: under `Cc1csc2c(=O)n(C3OC(CO)C(O)C3O)c(=O)[nH]c12` (stereo not drawn) stands more than 100 µM.
Take `Cc1csc2[n+]1C(=O)/C(=C\c1ccc([N+](=O)[O-])cc1)S2`: the TGI amounted to 86.5 µM.
The same measure, in the same setting: next, `CC(C)OC(=O)c1ccc(NCc2cc(O)ccc2O)cc1Cl`: more than 66.4 µM.

A further test relates to SF-295 CNS. Nature of the test: NCI-60 cell line screen, 48 h.
The compound `CCOP(=O)(OCC)/C(C#N)=C/c1ncc[nH]1` displayed a TGI of more than 100 µM.
The same measure, in the same setting: under `Cc1csc2c(=O)n(C3OC(CO)C(O)C3O)c(=O)[nH]c12` (stereo not drawn) stands more than 100 µM; under `Cc1csc2[n+]1C(=O)/C(=C\c1ccc([N+](=O)[O-])cc1)S2`, 65.1 µM; under `CC(C)OC(=O)c1ccc(NCc2cc(O)ccc2O)cc1Cl`, 34.6 µM.

The next test deals with SF-539 CNS. Nature of the test: NCI-60 cell line screen, 48 h.
For `CCOP(=O)(OCC)/C(C#N)=C/c1ncc[nH]1`, the TGI is 72.9 µM.
Turning to `Cc1csc2c(=O)n(C3OC(CO)C(O)C3O)c(=O)[nH]c12` (stereo not drawn), the TGI is more than 100 µM.
Consider `Cc1csc2[n+]1C(=O)/C(=C\c1ccc([N+](=O)[O-])cc1)S2`, for which the TGI is more than 100 µM.
